Here are results for 37 molecules from US10730848B2 (priority 2013, dated 2020).

Read-outs that look alike come from different tables or passages of the source. Bounds are passed on as bounds.

This assay deals with anthrax lethal toxin (LT). Nature of the assay: cells. In kind it is cell-based, murine.
Where [1] appears, read: Mus musculus, RAW264.7, read-out: IC50 (In uM).
The mark [2] stands for this setting: Mus musculus, RAW264.7, read-out: IC50, inhibition of LT-induced cell death.

Take `Cc1cccc(C)c1NC(=O)N/N=C/c1ccc(Br)cc1F` [Compound 2, N^1-(4-BROMO-2-FLUOROBENZYLIDENE)-N^4-(2,6-DIMETHYLPHENYL)SEMICARBAZONE]: the “protection of cells from LT (in words)” value was “mid-nanomolar levels”. Where the note is “Mus musculus, RAW264.7”, this molecule registered an IC50 of 0.4 µM. The 50% inhibitory concentration (IC50) under setting [1] stood at 0.4 µM. In addition, the IC50 under setting [2] was 0.4 µM.

Turning to `Cc1cccc(C)c1NC(=O)NN` [Compound 6, N-(2,6-DIMETHYLPHENYL) SEMICARBAZIDE], the “protection of cells from LT (in words)” value is “did not prevent toxin-induced cell death”.

Turning to `Cc1ccc(NC(=O)N/N=C/c2ccc(Br)cc2)c(C)c1` [Compound 9a, N^1-(4-BROMOBENZYLIDENE)-N^4-(2,4-DIMETHYLPHENYL)SEMICARBAZONE], the “protection of cells from LT (in words)” value is reported as “not protective”. In addition, the IC50 (Mus musculus, RAW264.7) is over 25 µM.

Regarding `Cc1cc(C)c(NC(=O)N/N=C/c2ccc(Br)cc2)c(C)c1` [Compound 9b, N^1-(4-BROMOBENZYLIDENE)-N^4-(2,4,6-DIMETHYLPHENYL)SEMICARBAZONE], the “fold less active than 1” value is recorded as “approximately 10 fold”. The same molecule yielded an IC50 (Mus musculus, RAW264.7) of 12.6 µM. Moreover, the 50% inhibitory concentration (IC50) under setting [1] was 12.6 µM.

The molecule `CCc1cccc(CC)c1NC(=O)N/N=C/c1ccc(Br)cc1` [Compound 9c, N^1-(4-BROMOBENZYLIDENE)-N^4-(2,6-DIETHYLPHENYL)SEMICARBAZONE] had an IC50 of over 12.5 µM. Further, the half-inhibitory concentration (IC50) (Mus musculus, RAW264.7) was determined as 16.7 µM. Also, the concentration for half-maximal inhibition (IC50) under setting [1] is over 12.5 µM. Further, the half-inhibitory concentration (IC50) under setting [2] is over 12.5 µM.

As to `CC(C)(C)NC(=O)N/N=C/c1ccc(Br)cc1` [Compound 10, N^1-(4-BROMOBENZYLIDENE)-N^4-(TERT-BUTYL)SEMICARBAZONE], the “protection of cells from LT (in words)” value is on record as “not protective”. For the setting “Mus musculus, RAW264.7”, this molecule returned a half-inhibitory concentration (IC50) of over 25 µM.

Consider `O=C(N/N=C/c1ccc(Cl)cc1)Nc1ccccc1` [Compound 11, N^1-(4-Cl-benzylidene)-N^4-phenylsemicarbazone, reference compound], for which the “protection of cells from LT (in words)” value is “not protective”. Further, the IC50 (Mus musculus, RAW264.7) was over 25 µM.

Take `Cc1cccc(C)c1NC(=O)NN=Cc1ccccc1` [Compound 12, benzaldehyde N-(2,6-dimethylphenyl)semicarbazone, reference compound]: the “protection of cells from LT (in words)” value was “showed almost no activity against LT”. Also, the IC50 (Mus musculus, RAW264.7) was over 25 µM.

On to `Cc1cccc(C)c1NC(=O)N/N=C/c1ccc(Cl)cc1` [Compound 13a, N^1-(4-CHLOROBENZYLIDENE)-N^4-(2,6-DIMETHYLPHENYL)SEMICARBAZONE], for which the midpoint of inhibition, the IC50, lay at 1.7 ± 0.2 µM. The molecule also had an IC50 (Mus musculus, RAW264.7) of 1.65 µM. Also, the IC50 under setting [1] amounted to 1.65 µM.

`Cc1cccc(C)c1NC(=O)N/N=C/c1ccc(Br)c(F)c1` [Compound 13aa, N^1-(4-BROMO-3-FLUOROBENZYLIDENE)-N^4-(2,6-DIMETHYLPHENYL)SEMICARBAZONE] showed an IC50 (Mus musculus, RAW264.7) of 1.5 µM.

`Cc1cccc(C)c1NC(=O)N/N=C/c1ccc(Br)c(Cl)c1` [Compound 13ab, N^1-(4-BROMO-3-CHLOROBENZYLIDENE)-N^4-(2,6-DIMETHYLPHENYL)SEMICARBAZONE]: the IC50 (Mus musculus, RAW264.7) is 3.4 µM.

As to `Cc1cccc(C)c1NC(=O)N/N=C/c1cccc(C(F)(F)F)c1Cl` [Compound 13b, N^1-(2-CHLORO-3-TRIFLUOROMETHYLBENZYLIDENE)-N^4-(2,6-DIMETHYLPHENYL)SEMICARBAZONE], the IC50 was over 25 µM (Mus musculus, RAW264.7) and over 25 µM under setting [1].

Consider `Cc1cccc(C)c1NC(=O)N/N=C/c1ccccc1F` [Compound 13c, N^1-(2-FLUOROBENZYLIDENE)-N^4-(2,6-DIMETHYLPHENYL)SEMICARBAZONE], for which the half-inhibitory concentration (IC50) is, setting by setting: (Mus musculus, RAW264.7) 8.2 µM; under setting [1], 8.23 µM.

`Cc1ccc(/C=N/NC(=O)Nc2c(C)cccc2C)cc1F` [Compound 13d, N^1-(3-FLUORO-4-METHYLBENZYLIDENE)-N^4-(2,6-DIMETHYLPHENYL)SEMICARBAZONE]: the 50% inhibitory concentration (IC50) (Mus musculus, RAW264.7) stood at 1.8 µM and the half-inhibitory concentration (IC50) under setting [1] turned out to be 1.81 µM.

Regarding `Cc1cccc(C)c1NC(=O)N/N=C/c1ccc(F)cc1` [Compound 13e, N^1-(4-FLUOROBENZYLIDENE)-N^4-(2,6-DIMETHYLPHENYL)SEMICARBAZONE], the IC50 reads like this: (Mus musculus, RAW264.7) 7 µM; under setting [1], 7 µM; under setting [2], 7 µM.

As for `Cc1cccc(C)c1NC(=O)N/N=C/c1ccc(F)cc1F` [Compound 13f, N^1-(2,4-DIFLUOROBENZYLIDENE)-N^4-(2,6-DIMETHYLPHENYL)SEMICARBAZONE], the IC50 amounted to 2.1 µM (Mus musculus, RAW264.7); 2.14 µM under setting [1]; 2.1 µM under setting [2].

Take `COc1cccc(/C=N/NC(=O)Nc2c(C)cccc2C)c1OC` [Compound 13g, N^1-(2,3-DIMETHOXYBENZYLIDENE)-N^4-(2,6-DIMETHYLPHENYL)SEMICARBAZONE]: the IC50 (Mus musculus, RAW264.7) is over 25 µM and the half-maximal inhibitory concentration (IC50) under setting [1] was over 25 µM.

Take `COc1cc(OC)c(/C=N/NC(=O)Nc2c(C)cccc2C)c(OC)c1` [Compound 13h, N^1-(2,4,6-TRIMETHOXYBENZYLIDENE)-N^4-(2,6-DIMETHYLPHENYL)SEMICARBAZONE]: the 50% inhibitory concentration (IC50) reads like this: (Mus musculus, RAW264.7) over 25 µM; under setting [1], over 25 µM.

Consider `Cc1ccccc1/C=N/NC(=O)Nc1c(C)cccc1C` [Compound 13i, N^1-(2-METHYLBENZYLIDENE)-N^4-(2,6-DIMETHYLPHENYL)SEMICARBAZONE], for which the half-maximal inhibitory concentration (IC50) by setting is: (Mus musculus, RAW264.7) over 25 µM; under setting [1], over 25 µM.

As to `Cc1cccc(/C=N/NC(=O)Nc2c(C)cccc2C)c1` [Compound 13j, N^1-(3-METHYLBENZYLIDENE)-N^4-(2,6-DIMETHYLPHENYL)SEMICARBAZONE], the 50% inhibitory concentration (IC50) runs as follows: (Mus musculus, RAW264.7) 13.4 µM; under setting [1], 13.4 µM.

With `Cc1ccc(/C=N/NC(=O)Nc2c(C)cccc2C)cc1` [Compound 13k, N^1-(4-METHYLBENZYLIDENE)-N^4-(2,6-DIMETHYLPHENYL)SEMICARBAZONE], the IC50 reads like this: (Mus musculus, RAW264.7) 2.9 µM; under setting [1], 2.9 µM.

`CCc1ccc(/C=N/NC(=O)Nc2c(C)cccc2C)cc1` [Compound 13l, N^1-(4-ETHYLBENZYLIDENE)-N^4-(2,6-DIMETHYLPHENYL)SEMICARBAZONE]: the IC50 reads like this: (Mus musculus, RAW264.7) 3 µM; under setting [1], 3.02 µM.

For `Cc1cccc(C)c1NC(=O)N/N=C/c1ccc(C(C)C)cc1` [Compound 13m, N^1-(4-I-PROPYLBENZYLIDENE)-N^4-(2,6-DIMETHYLPHENYL)SEMICARBAZONE], the half-inhibitory concentration (IC50) is, setting by setting: (Mus musculus, RAW264.7) 6.5 µM; under setting [1], 6.48 µM.

On to `COc1ccc(/C=N/NC(=O)Nc2c(C)cccc2C)cc1` [Compound 13n, N^1-(4-METHOXYBENZYLIDENE)-N^4-(2,6-DIMETHYLPHENYL)SEMICARBAZONE], for which the IC50 (Mus musculus, RAW264.7) was over 12.5 µM and the 50% inhibitory concentration (IC50) under setting [1] was over 12.5 µM.

As for `C#Cc1ccc(/C=N/NC(=O)Nc2c(C)cccc2C)cc1` [Compound 13o, N^1-(4-ETHYNYLBENZYLIDENE)-N^4-(2,6-DIMETHYLPHENYL)SEMICARBAZONE], the 50% inhibitory concentration (IC50) by setting is: (Mus musculus, RAW264.7) 1.7 µM; under setting [1], 1.69 µM.

In the case of `Cc1cccc(C)c1NC(=O)N/N=C/c1ccc(NS(C)(=O)=O)cc1` [Compound 13p, N^1-(4-(N-(4-FORMYLPHENYL)METHANESULFONAMIDE)BENZYLIDENE-N^4-(2,6-DIMETHYLPHENYL)SEMICARBAZONE], the IC50 was over 25 µM (Mus musculus, RAW264.7) and over 25 µM under setting [1].

Consider `Cc1cccc(C)c1NC(=O)N/N=C/c1ccc(I)cc1` [Compound 13q, N^1-(4-IODOBENZYLIDENE)-N^4-(2,6-DIMETHYLPHENYL)SEMICARBAZONE], for which the concentration for half-maximal inhibition (IC50) amounted to 1.8 ± 0.3 µM. For the same molecule, where the note is “Mus musculus, RAW264.7”, the midpoint of inhibition, the IC50, lay at 1.77 µM. Moreover, the IC50 under setting [1] amounted to 1.77 µM.

`Cc1cccc(C)c1NC(=O)N/N=C/c1ccc(C(F)(F)F)cc1` [Compound 13r, N^1-(4-TRIFLUOROMETHYLBENZYLIDENE)-N^4-(2,6-DIMETHYLPHENYL)SEMICARBAZONE]: the IC50 runs as follows: (Mus musculus, RAW264.7) 2.6 ± 0.5 µM; under setting [1], 2.59 µM.

`Cc1cccc(C)c1NC(=O)N/N=C/c1ccc(C#N)cc1` [Compound 13s, N^1-(4-CYANOMETHYLBENZYLIDENE)-N^4-(2,6-DIMETHYLPHENYL)SEMICARBAZONE] showed an IC50 of 2.5 ± 0.3 µM. Under “Mus musculus, RAW264.7”, this molecule came in with a half-maximal inhibitory concentration (IC50) of 2.45 µM. Moreover, the half-inhibitory concentration (IC50) under setting [1] was found to be 2.45 µM.

Take `Cc1cccc(C)c1NC(=O)N/N=C/c1ccncc1` [Compound 13t, N^1-(PYRIDIN-4-YLMETHYLENE)-N^4-(2,6-DIMETHYLPHENYL)SEMICARBAZONE]: the half-inhibitory concentration (IC50) (Mus musculus, RAW264.7) is over 25 µM.

On to `Cc1cccc(C)c1NC(=O)N/N=C/c1ccco1` [Compound 13u, N^1-(FURAN-2-YLMETHYLENE)-N^4-(2,6-DIMETHYLPHENYL)SEMICARBAZONE], for which the IC50 (Mus musculus, RAW264.7) was over 25 µM.

Turning to `Cc1cccc(C)c1NC(=O)N/N=C/c1ccc(Br)o1` [Compound 13v, N^1-(5-BROMOFURAN-2-YLMETHYLENE)-N^4-(2,6-DIMETHYLPHENYL)SEMICARBAZONE], the IC50 was over 25 µM. Where the note is “Mus musculus, RAW264.7”, this molecule showed a half-maximal inhibitory concentration (IC50) of over 25 µM.

In turn, `Cc1cccc(C)c1NC(=O)N/N=C/c1cccs1` [Compound 13w, N^1-(THIOPHENE-2-YLMETHYLENE)-N^4-(2,6-DIMETHYLPHENYL)SEMICARBAZONE] registered an IC50 of over 25 µM. The IC50 (Mus musculus, RAW264.7) was over 25 µM.

For `Cc1cccc(C)c1NC(=O)N/N=C/c1ccc(Br)s1` [Compound 13x, N^1-(5-BROMOTHIOPHENE-2-YLMETHYLENE)-N^4-(2,6-DIMETHYLPHENYL)SEMICARBAZONE], the half-inhibitory concentration (IC50) worked out at 1.67 µM (Mus musculus, RAW264.7) and 1.7 µM under setting [2].

Consider `Cc1cccc(C)c1NC(=O)N/N=C/c1c(F)cc(Br)cc1F` [Compound 13y, N^1-(4-BROMO-2,6-DIFLUOROBENZYLIDENE)-N^4-(2,6-DIMETHYLPHENYL)SEMICARBAZONE], for which the half-inhibitory concentration (IC50) was 4 ± 0.8 µM. Moreover, the IC50 (Mus musculus, RAW264.7) worked out at 3.9 µM. For the same molecule, the IC50 under setting [1] stood at 3.95 µM.

With `Cc1cccc(C)c1NC(=O)N/N=C/c1ccc(Br)cc1Cl` [Compound 13z, N^1-(4-BROMO-2-CHLOROBENZYLIDENE)-N^4-(2,6-DIMETHYLPHENYL)SEMICARBAZONE], the half-inhibitory concentration (IC50) by setting is: (Mus musculus, RAW264.7) 3.2 µM; under setting [1], 3.24 µM.

On to `Cc1cccc(C)c1NC(=O)NNCc1ccc(Br)cc1` [Compound 14, 2-(4-BROMOBENZYL)-N-(2,6-DIMETHYLPHENYL)HYDRAZINECARBOXAMIDE], for which the “protection of cells from LT (in words)” value is “not protective”. In addition, the IC50 (Mus musculus, RAW264.7) is over 25 µM. Under setting [1], the 50% inhibitory concentration (IC50) is over 25 µM.

By IC50 is commonly meant the concentration at which inhibition is half-maximal.
